The text below walks through data of article PMC11602654 (The Journal of General Physiology, 2024).

Assay [1] deals with α1β2γ2L GABAA receptor (Rattus norvegicus, UniProt P62813+P63138). The experiment in a line: two-electrode voltage clamp, concentration-response. The format is cell-based. A general note: Two-electrode voltage clamp holds a large cell at a set potential and records current.
In assay [2] the target is T1, β3(Q64R+G127T) homomeric GABAA receptor (Homo sapiens, UniProt P28472, G152T/Q89R).
T1 sequence (P28472 26-473 Q89R/G152T): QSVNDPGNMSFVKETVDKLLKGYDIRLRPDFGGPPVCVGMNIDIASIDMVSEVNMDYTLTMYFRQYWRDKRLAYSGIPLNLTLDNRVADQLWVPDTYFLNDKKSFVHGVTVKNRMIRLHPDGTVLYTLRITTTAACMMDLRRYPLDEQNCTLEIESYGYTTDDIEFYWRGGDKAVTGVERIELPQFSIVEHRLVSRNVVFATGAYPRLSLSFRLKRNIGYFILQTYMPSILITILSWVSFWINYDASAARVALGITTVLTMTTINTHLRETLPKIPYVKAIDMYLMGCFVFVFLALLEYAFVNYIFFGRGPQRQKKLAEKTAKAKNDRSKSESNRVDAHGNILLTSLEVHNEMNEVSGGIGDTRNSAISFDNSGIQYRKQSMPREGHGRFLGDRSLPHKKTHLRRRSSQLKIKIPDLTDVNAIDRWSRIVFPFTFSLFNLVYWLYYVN
The description is as above. Type of assay: cell-based.

One may read the EC50 as the concentration at which the effect is half-maximal. Higher therefore signals a need for much substance. On to `O=S(=O)(O)C1CCNCC1` [P4S, piperidine-4-sulfonic acid], for which, in assay [1], the response was half-maximal at 0.033 ± 0.012 mM (EC50). Turning to `NCCc1c[nH]cn1` [histamine], in assay [2], the EC50 is 9 ± 0.5 mM.
